Results reported in patent publication US20050182025A1, “Amidinylphenyl compounds and their use as fungicides” (priority 2002, published 2005).

Tests used:
Type in all cases: in vivo
Septoria nodorum = assay: Test C: preventive spray on wheat seedlings, Septoria glume blotch, disease rating; conditions: wheat seedlings sprayed to run-off, inoculated the following day with Septoria nodorum, 48 h saturated atmosphere then 9 days at 20° C.; test concentration not given
In short: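 Preventive test: one day after spraying (to run-off; 200 ppm ≈ 500 g/ha, in acetone/water with 250 ppm surfactant), seedlings received a S. nodorum spore suspension. After 48 h in saturated air and 9 days in a growth chamber, both at 20° C., % disease control versus controls was scored.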

[1] = system: Erysiphe graminis f. sp. tritici; assay: Test A: preventive spray on wheat seedlings, wheat powdery mildew, disease rating; conditions: wheat seedlings sprayed to run-off, inoculated the following day with Erysiphe graminis f. sp. tritici, rated after 7 days at 20° C.; test concentration not given
In short: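 Preventive test: Erysiphe graminis f. sp. tritici spore dust applied one day after run-off spraying of seedlings with acetone/water/surfactant suspension, 200 ppm equating to 500 g/ha. Plants held 7 days at 20 °C; ratings give % disease control versus controls, 100 full, 0 none.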

Puccinia recondita = assay: Test B: preventive spray on wheat seedlings, wheat leaf rust, disease rating; conditions: wheat seedlings sprayed to run-off, inoculated the following day with Puccinia recondita, 24 h saturated atmosphere then 6 days at 20° C.; test concentration not given
In short: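 Preventive test: seedlings inoculated with Puccinia recondita one day after run-off spraying with test suspension (acetone/water, 250 ppm Trem 014; 200 ppm equals 500 g/ha). Rating after 24 h at 20° C in saturation plus 6 days in 20° C growth chamber; 0–100 scale versus controls.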

CCN(C)C(=S)Nc1cc(C)c(OCCCC(C)(C)C)c(Cl)c1C [compound 139]
Test C disease control rating (100 = 100% disease control, 0 = no disease control relative to the controls) (Septoria nodorum): 99%
Test A disease control rating (100 = 100% disease control, 0 = no disease control relative to the controls) [1]: 100%
Test B disease control rating (100 = 100% disease control, 0 = no disease control relative to the controls) (Puccinia recondita): 100%

CCN(C)C=Nc1cc(C)c(OCCC[Si](C)(C)C)c(Cl)c1C [compound 140]
Test C disease control rating (100 = 100% disease control, 0 = no disease control relative to the controls) (Septoria nodorum): 100%
Test A disease control rating (100 = 100% disease control, 0 = no disease control relative to the controls) [1]: 100%
Test B disease control rating (100 = 100% disease control, 0 = no disease control relative to the controls) (Puccinia recondita): 100%

CCCCC(CCC)Sc1cc(C)c(N=CN(C)C)cc1C (stereo not drawn) [compound 141]
Test C disease control rating (100 = 100% disease control, 0 = no disease control relative to the controls) (Septoria nodorum): 100%
Test A disease control rating (100 = 100% disease control, 0 = no disease control relative to the controls) [1]: 0%
Test B disease control rating (100 = 100% disease control, 0 = no disease control relative to the controls) (Puccinia recondita): 99%

CCCCC(CCC)Sc1cc(C)c(N=C(C)N(C)C)cc1C (stereo not drawn) [compound 142]
Test C disease control rating (100 = 100% disease control, 0 = no disease control relative to the controls) (Septoria nodorum): 53%
Test A disease control rating (100 = 100% disease control, 0 = no disease control relative to the controls) [1]: 0%
Test B disease control rating (100 = 100% disease control, 0 = no disease control relative to the controls) (Puccinia recondita): 0%

CCCCC(CCCC)Sc1cc(C)c(N=C(C)N(C)C)cc1C [compound 143]
Test C disease control rating (100 = 100% disease control, 0 = no disease control relative to the controls) (Septoria nodorum): 80%
Test A disease control rating (100 = 100% disease control, 0 = no disease control relative to the controls) [1]: 0%
Test B disease control rating (100 = 100% disease control, 0 = no disease control relative to the controls) (Puccinia recondita): 0%

Cc1cc(NCCC(C)CC(C)(C)C)c(C)cc1N=CN(C)C (stereo not drawn) [compound 147]
Test C disease control rating (100 = 100% disease control, 0 = no disease control relative to the controls) (Septoria nodorum): 53%
Test A disease control rating (100 = 100% disease control, 0 = no disease control relative to the controls) [1]: 0%
Test B disease control rating (100 = 100% disease control, 0 = no disease control relative to the controls) (Puccinia recondita): 0%

CCCC(CCC(C)C)Nc1cc(C)c(N=CN(C)C)cc1C (stereo not drawn) [compound 148]
Test C disease control rating (100 = 100% disease control, 0 = no disease control relative to the controls) (Septoria nodorum): 47%
Test A disease control rating (100 = 100% disease control, 0 = no disease control relative to the controls) [1]: 0%
Test B disease control rating (100 = 100% disease control, 0 = no disease control relative to the controls) (Puccinia recondita): 0%

CCCCC(CCCC)Nc1cc(C)c(N=CN(C)C)cc1C [compound 150]
Test C disease control rating (100 = 100% disease control, 0 = no disease control relative to the controls) (Septoria nodorum): 47%
Test A disease control rating (100 = 100% disease control, 0 = no disease control relative to the controls) [1]: 0%
Test B disease control rating (100 = 100% disease control, 0 = no disease control relative to the controls) (Puccinia recondita): 0%

Cc1cc(NC(CCC(C)C)CCC(C)C)c(C)cc1N=CN(C)C [compound 151]
Test C disease control rating (100 = 100% disease control, 0 = no disease control relative to the controls) (Septoria nodorum): 60%
Test A disease control rating (100 = 100% disease control, 0 = no disease control relative to the controls) [1]: 0%
Test B disease control rating (100 = 100% disease control, 0 = no disease control relative to the controls) (Puccinia recondita): 0%

Cc1cc(NCCCC(C)C)c(C)cc1N=CN(C)C [compound 154]
Test C disease control rating (100 = 100% disease control, 0 = no disease control relative to the controls) (Septoria nodorum): 47%
Test A disease control rating (100 = 100% disease control, 0 = no disease control relative to the controls) [1]: 0%
Test B disease control rating (100 = 100% disease control, 0 = no disease control relative to the controls) (Puccinia recondita): 0%

CCCCC(CCCC)Sc1cc(C)c(N=CN(C)C)cc1C [compound 155]
Test C disease control rating (100 = 100% disease control, 0 = no disease control relative to the controls) (Septoria nodorum): 95%
Test A disease control rating (100 = 100% disease control, 0 = no disease control relative to the controls) [1]: 0%
Test B disease control rating (100 = 100% disease control, 0 = no disease control relative to the controls) (Puccinia recondita): 23%

Cc1cc(SCCCC(C)C)c(C)cc1N=CN(C)C [compound 156]
Test C disease control rating (100 = 100% disease control, 0 = no disease control relative to the controls) (Septoria nodorum): 100%
Test A disease control rating (100 = 100% disease control, 0 = no disease control relative to the controls) [1]: 93%
Test B disease control rating (100 = 100% disease control, 0 = no disease control relative to the controls) (Puccinia recondita): 100%

CCCC(CCC)Sc1cc(C)c(N=CN(C)C)cc1C [compound 157]
Test C disease control rating (100 = 100% disease control, 0 = no disease control relative to the controls) (Septoria nodorum): 99%
Test A disease control rating (100 = 100% disease control, 0 = no disease control relative to the controls) [1]: 0%
Test B disease control rating (100 = 100% disease control, 0 = no disease control relative to the controls) (Puccinia recondita): 96%

Cc1cc(SC(CCC(C)C)CCC(C)C)c(C)cc1N=CN(C)C [compound 159]
Test C disease control rating (100 = 100% disease control, 0 = no disease control relative to the controls) (Septoria nodorum): 47%
Test A disease control rating (100 = 100% disease control, 0 = no disease control relative to the controls) [1]: 94%
Test B disease control rating (100 = 100% disease control, 0 = no disease control relative to the controls) (Puccinia recondita): 100%

CCCCC(CCC)Sc1cc(C)c(N=CN(C)C)cc1C (stereo not drawn) [compound 160]
Test C disease control rating (100 = 100% disease control, 0 = no disease control relative to the controls) (Septoria nodorum): 0%
Test A disease control rating (100 = 100% disease control, 0 = no disease control relative to the controls) [1]: 0%
Test B disease control rating (100 = 100% disease control, 0 = no disease control relative to the controls) (Puccinia recondita): 55%

C=C(C)CC(CC)Sc1cc(C)c(N=CN(C)C)cc1C (stereo not drawn) [compound 161]
Test C disease control rating (100 = 100% disease control, 0 = no disease control relative to the controls) (Septoria nodorum): 53%
Test A disease control rating (100 = 100% disease control, 0 = no disease control relative to the controls) [1]: 72%
Test B disease control rating (100 = 100% disease control, 0 = no disease control relative to the controls) (Puccinia recondita): 100%

CCN(CC)C(=S)Nc1cc(C)c(OCCC[Si](C)(C)C)cc1C [compound 163]
Test C disease control rating (100 = 100% disease control, 0 = no disease control relative to the controls) (Septoria nodorum): 73%
Test A disease control rating (100 = 100% disease control, 0 = no disease control relative to the controls) [1]: 32%
Test B disease control rating (100 = 100% disease control, 0 = no disease control relative to the controls) (Puccinia recondita): 100%

CCN(C)C(=S)Nc1cc(C)c(OCCC[Si](C)(C)C)cc1C [compound 164]
Test C disease control rating (100 = 100% disease control, 0 = no disease control relative to the controls) (Septoria nodorum): 100%
Test A disease control rating (100 = 100% disease control, 0 = no disease control relative to the controls) [1]: 100%
Test B disease control rating (100 = 100% disease control, 0 = no disease control relative to the controls) (Puccinia recondita): 100%

Cc1cc(OCCOC(C)(C)C)c(C)cc1NC(=S)N(C)C [compound 165]
Test C disease control rating (100 = 100% disease control, 0 = no disease control relative to the controls) (Septoria nodorum): 0%
Test A disease control rating (100 = 100% disease control, 0 = no disease control relative to the controls) [1]: 0%
Test B disease control rating (100 = 100% disease control, 0 = no disease control relative to the controls) (Puccinia recondita): 28%

Cc1cc(OCCC[Si](C)(C)C)c(C)cc1NC(=S)N(C)C [compound 167]
Test C disease control rating (100 = 100% disease control, 0 = no disease control relative to the controls) (Septoria nodorum): 100%
Test A disease control rating (100 = 100% disease control, 0 = no disease control relative to the controls) [1]: 99%
Test B disease control rating (100 = 100% disease control, 0 = no disease control relative to the controls) (Puccinia recondita): 99%

Cc1cc(OCCC[Si](C)(C)C)c(Cl)cc1NC(=S)N(C)C [compound 168]
Test C disease control rating (100 = 100% disease control, 0 = no disease control relative to the controls) (Septoria nodorum): 100%
Test A disease control rating (100 = 100% disease control, 0 = no disease control relative to the controls) [1]: 99%
Test B disease control rating (100 = 100% disease control, 0 = no disease control relative to the controls) (Puccinia recondita): 100%

CCN(C)C(=S)Nc1cc(Cl)c(OCCC[Si](C)(C)C)cc1C [compound 169]
Test C disease control rating (100 = 100% disease control, 0 = no disease control relative to the controls) (Septoria nodorum): 100%
Test A disease control rating (100 = 100% disease control, 0 = no disease control relative to the controls) [1]: 99%
Test B disease control rating (100 = 100% disease control, 0 = no disease control relative to the controls) (Puccinia recondita): 100%
